# Laboratory results reported in US7820379B2, “Process for high throughput screening of CpG-based immuno-agonist/antagonist” (Coley Pharmaceutical GmbH, priority 2000, dated 2010).
# Tests used:
# murine splenocytes = assay: IL-12 production in murine splenocytes; assay type: cell-based; conditions: ODN titration, after 8 hours
# Source text: By iterative examination of the flanking sequences surrounding CG dinucleotides, CpG-motifs have been identified. Paradoxically, or by twist of nature, the human optimal CpG-motif, GTCGTT (SEQ ID NO:66), is different from the murine motif, GACGTT (SEQ ID NO:129). Human peripheral blood mononuclear cells (PBMC) (FIG. 10A) and murine splenocytes (FIG. 10B) were stimulated with ODN 2006 (filled circle, […], SEQ ID NO:112), ODN 2006-GC (open circle), ODN 1668 (filled triangle, […], SEQ ID NO:84) or ODN 1668-GC (open triangle, […], SEQ ID NO:85) at indicated concentrations and IL-12 production was monitored after 8 hours. […] It should also be noted that the Kac (concentration of half-maximal activation) of murine splenocytes for 1668 was greater than human PBMC for 2006 (compare FIG. 10A to FIG. 10B).
# human TLR9 = target: T1, human TLR9 (Homo sapiens, UniProt Q9NR96, H530R/Q688R); assay: IL-8 production by ELISA in 293 cells transfected with human TLR9; assay type: cell-based; conditions: 293 cells transiently transfected with hTLR9 alone; 48 h; ODN 2 μM, LPS 100 ng/ml
# T1 construct: expressed in transfected cells
# T1 sequence (Q9NR96 26-1032 H530R/Q688R): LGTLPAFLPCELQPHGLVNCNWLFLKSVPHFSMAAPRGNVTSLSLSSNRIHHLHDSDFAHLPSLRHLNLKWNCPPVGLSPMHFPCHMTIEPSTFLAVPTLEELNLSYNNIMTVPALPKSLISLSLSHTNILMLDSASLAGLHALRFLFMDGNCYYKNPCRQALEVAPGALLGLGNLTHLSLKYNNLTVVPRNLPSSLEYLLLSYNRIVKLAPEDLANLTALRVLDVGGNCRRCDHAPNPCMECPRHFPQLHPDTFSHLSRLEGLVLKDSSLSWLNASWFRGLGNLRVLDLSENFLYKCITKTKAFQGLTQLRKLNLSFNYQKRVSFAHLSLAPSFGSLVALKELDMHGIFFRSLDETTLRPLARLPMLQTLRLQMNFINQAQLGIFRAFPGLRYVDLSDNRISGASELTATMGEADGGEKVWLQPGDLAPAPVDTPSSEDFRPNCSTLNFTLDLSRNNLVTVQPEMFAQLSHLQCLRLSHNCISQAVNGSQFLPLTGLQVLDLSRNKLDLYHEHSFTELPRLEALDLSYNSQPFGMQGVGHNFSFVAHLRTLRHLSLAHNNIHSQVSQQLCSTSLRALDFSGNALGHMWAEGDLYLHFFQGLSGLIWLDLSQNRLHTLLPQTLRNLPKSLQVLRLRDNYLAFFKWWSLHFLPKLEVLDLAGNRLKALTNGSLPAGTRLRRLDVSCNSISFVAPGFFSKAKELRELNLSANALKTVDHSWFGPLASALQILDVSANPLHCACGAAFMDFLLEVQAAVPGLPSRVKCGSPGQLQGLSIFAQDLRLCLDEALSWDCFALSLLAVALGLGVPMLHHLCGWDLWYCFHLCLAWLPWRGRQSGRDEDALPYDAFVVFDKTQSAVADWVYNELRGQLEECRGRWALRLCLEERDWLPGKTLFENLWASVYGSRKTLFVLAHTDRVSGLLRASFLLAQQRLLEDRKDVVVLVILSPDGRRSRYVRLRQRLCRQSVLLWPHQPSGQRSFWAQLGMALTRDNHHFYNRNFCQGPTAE
# Source text: Since NF-κB activation is central to the IL-1/TLR signal transduction pathway (Medzhitov R et al., Mol Cell 2:253-258 (1998); Muzio M et al., J Exp Med 187:2097-2101 (1998)), cells were transfected with hTLR9 or co-transfected with hTLR9 and a NF-κB-driven luciferase reporter construct. Human fibroblast 293 cells were transiently transfected with (FIG. 1A) hTLR9 and a six-times NF-κB-luciferase reporter plasmid (NF-κB-luc, kindly provided by Patrick Baeuerle, Munich, Germany) or (FIG. 1B) with hTLR9 alone. After stimulus with CpG-ODN (2006, 2 μM, […], SEQ ID NO:112), GpC-ODN (2006-GC, 2 μM, […], SEQ ID NO:118), LPS (100 ng/ml) or media, NF-κB activation by luciferase readout (8 h, FIG. 1A) or IL-8 production by ELISA (48 h, FIG. 1B) were monitored. Results are representative of three independent experiments. […]
# Because stable TLR9 transfectants mirrored primary cell responsiveness to CpG-DNA (FIGS. 4 and 5), it was hypothesized that stable transfectants could potentially discern species-specific CpG-motifs through TLR9 receptors. […] Depicted are both NF-κB-driven luciferase and IL-8 production as readout. […] After lysis of the cells luciferase can be detected photometrically based on an enzymatic reaction by luciferase which creates photons. IL-8 production was monitored using enzyme-linked immunosorbent assay (ELISA). […]
# [1] = test system: plasmacytoid DC (CD123+DC); assay: Cytokine production by plasmacytoid dendritic cells (ELISA); assay type: cell-based, human; conditions: purified CD123+DC; ODN 2 μM, LPS 100 ng/ml
# Method: Human dendritic cells (DC) have been claimed to be responsive to CpG-DNA. […] The converse was true for stimulation of monocyte-derived dendritic cells (MDDC) (FIG. 8 and unpublished data). […] IL-8 and TNF concentration was determined by enzyme-linked immunosorbent assay (ELISA). The CD123+DC response was DNA- and CpG-motif restricted. […] Due to this segregated response we analyzed TLR expression.
Substance,IL-12 production (murine splenocytes),IL-8 production by ELISA (human TLR9),cytokine production by CD123+DC [1]
"TCCATGACGTTCCTGATGCT (listed as DNA, chemistry not fully specified) [ODN 1668]",induced optimal IL-12,,
TCGTCGTTTTGTCGTTTTGTCGTT [ODN 2006],much less effective,responded,"produced IFN-α, TNF, GM-CSF, and IL-8"
lipopolysaccharide [LPS],,not,not
